Reference: patent US20250136576A1, “Heterocyclic Compounds and Uses Thereof” (ACEA Therapeutics, Inc., priority 2021, published 2025)
Read-outs that look alike come from different tables or passages of the source.

Test system: KM12-luc cells
Assay: Cell proliferation and growth inhibition assay (CCK-8) in KM12-luc
Assay type: cell-based
Conditions: KM12-luc cells, treated with test compounds for 72 hrs, CCK-8 viability, read-out: NTRK IC50 in KM12-luc
Method: MV-4-11 and H1975 cells were obtained from the American Type Culture Collection and KM12-luc cells were obtained from JCRB Cell Bank. All cell lines were maintained at 37° C. with 5% C02, in media supplemented with 10% fetal bovine serum and penicillin (100 units/mL) and streptomycin (100 μg/mL). MV-4-11 cells were maintained in Iscove's Modified Dubecco's Medium, H1975 cells were cultured with RPMI 1640 media, and KM12-luc cells were maintained in Dulbecco's Modification of Eagle's Medium. CCK-8 reagent was obtained from Yeasen. Cell proliferation was assessed by CCK-8 assay (Yeasen) per the manufacturer's instructions. […] Cell viability was assayed by incubating the cells with CCK-8 reagent for 1-4 hrs. Absorbance was measured at OD450 using the Beckman DTX880. The data was calculated using GraphPad Prism version 6.01. The IC50 values were fitted using a non-linear regression model with a sigmoidal dose response.

SMILES | IC50 (KM12-Luc, 72 h) [nM] | IC50 [nM]
CC(=O)Nc1cc(Nc2nc(-c3cn(C)c4ccccc34)c3occc3n2)ccc1N(C)CCN(C)C [Compound 256a, N-(2-((2-(dimethylamino)ethyl)(methyl)amino)-5-((4-(1-methyl-1H-indol-3-yl)furo[3,2-d]pyrimidin-2-yl)amino)phenyl)acetamide] | 447 | 
CC(=O)Nc1cc(Nc2nc(-c3cn(C)c4ccccc34)c3occc3n2)cc(F)c1N(C)CCN(C)C [Compound 256b, N-(2-((2-(dimethylamino)ethyl) (methyl)amino)-3-fluoro-5-((4-(1-methyl-1H-indol-3-yl)furo[3,2-d]pyrimidin-2-yl)amino)phenyl) acetamide] | 748 | 
CCN(CCN(C)C)c1ccc(Nc2nc(-c3cn(C)c4ccccc34)c3occc3n2)cc1NC(C)=O [Compound 256c, N-(2-((2-(dimethylamino)ethyl)(ethyl)amino)-5-((4-(1-methyl-1H-indol-3-yl)furo[3,2-d]pyrimidin-2-yl)amino)phenyl)acetamide] | 587 | 
CCN(CCN(C)C)c1c(F)cc(Nc2nc(-c3cn(C)c4ccccc34)c3occc3n2)cc1NC(C)=O [Compound 256d, N-(2-((2-(dimethylamino)ethyl)(ethyl)amino)-3-fluoro-5-((4-(1-methyl-1H-indol-3-yl)furo[3,2-d]pyrimidin-2-yl)amino)phenyl)acetamide] | 1000 | 
CC(=O)Nc1cc(Nc2nc3c(c(-c4cn(C)c5ccccc45)n2)COCC3)ccc1N(C)CCN(C)C [Compound 257a, N-(2-((2-(dimethylamino)ethyl)(methyl)amino)-5-((4-(1-methyl-1H-indol-3-yl)-7,8-dihydro-5H-pyrano[4,3-d]pyrimidin-2-yl)amino)phenyl)acetamide] | > 10000 | 
CC(=O)Nc1cc(Nc2nc3c(c(-c4cn(C)c5ccccc45)n2)COCC3)cc(F)c1N(C)CCN(C)C [Compound 257b, N-(2-((2-(dimethylamino)ethyl)(methyl)amino)-3-fluoro-5-((4-(1-methyl-1H-indol-3-yl)-7,8-dihydro-5H-pyrano[4,3-d]pyrimidin-2-yl)amino)phenyl)acetamide] | > 10000 | 
CCN(CCN(C)C)c1ccc(Nc2nc3c(c(-c4cn(C)c5ccccc45)n2)COCC3)cc1NC(C)=O [Compound 257c, N-(2-((2-(dimethylamino)ethyl)(ethyl)amino)-5-((4-(1-methyl-1H-indol-3-yl)-7,8-dihydro-5H-pyrano[4,3-d]pyrimidin-2-yl)amino)phenyl)acetamide] | > 10000 | 
CCN(CCN(C)C)c1c(F)cc(Nc2nc3c(c(-c4cn(C)c5ccccc45)n2)COCC3)cc1NC(C)=O [Compound 257d, N-(2-((2-(dimethylamino)ethyl)(ethyl)amino)-3-fluoro-5-((4-(1-methyl-1H-indol-3-yl)-7,8-dihydro-5H-pyrano[4,3-d]pyrimidin-2-yl)amino)phenyl)acetamide] | > 10000 | 
CC(=O)Nc1cc(Nc2nc3c(c(-c4cn(C)c5ccccc45)n2)CCO3)ccc1N(C)CCN(C)C [Compound 258a, N-(2-((2-(dimethylamino)ethyl)(methyl)amino)-5-((4-(1-methyl-1H-indol-3-yl)-5,6-dihydrofuro[2,3-d]pyrimidin-2-yl)amino)phenyl)acetamide] | > 1000 | 
CC(=O)Nc1cc(Nc2nc3c(c(-c4cn(C)c5ccccc45)n2)CCO3)cc(F)c1N(C)CCN(C)C [Compound 258b, N-(2-((2-(dimethylamino)ethyl)(methyl)amino)-3-fluoro-5-((4-(1-methyl-1H-indol-3-yl)-5,6-dihydrofuro[2,3-d]pyrimidin-2-yl)amino)phenyl)acetamide] | > 1000 | 
CCN(CCN(C)C)c1ccc(Nc2nc3c(c(-c4cn(C)c5ccccc45)n2)CCO3)cc1NC(C)=O [Compound 258c, N-(2-((2-(dimethylamino)ethyl)(ethyl)amino)-5-((4-(1-methyl-1H-indol-3-yl)-5,6-dihydrofuro[2,3-d]pyrimidin-2-yl)amino)phenyl)acetamide] | > 1000 | 
CCN(CCN(C)C)c1c(F)cc(Nc2nc3c(c(-c4cn(C)c5ccccc45)n2)CCO3)cc1NC(C)=O [Compound 258d, N-(2-((2-(dimethylamino)ethyl)(ethyl)amino)-3-fluoro-5-((4-(1-methyl-1H-indol-3-yl)-5,6-dihydrofuro[2,3-d]pyrimidin-2-yl)amino)phenyl)acetamide] | > 1000 | 
CC(=O)Nc1cc(Nc2ncc(F)c(-c3c[nH]c4ccccc34)n2)ccc1N(C)CCN(C)C [Compound 259a, N-(2-((2-(dimethylamino)ethyl)(methyl)amino)-5-((5-fluoro-4-(1H-indol-3-yl)pyrimidin-2-yl)amino)phenyl)acetamide] | 65.7 | 
CC(=O)Nc1cc(Nc2ncc(F)c(-c3cn(-c4ncc(F)c(-c5c[nH]c6ccccc56)n4)c4ccccc34)n2)ccc1N(C)CCN(C)C [Compound 259b, N-(2-((2-(dimethylamino)ethyl)(methyl)amino)-5-((5-fluoro-4-(1-(5-fluoro-4-(1H-indol-3-yl)pyrimidin-2-yl)-1H-indol-3-yl)pyrimidin-2-yl)amino)phenyl)acetamide] | 541 | 
CNc1cc(Nc2ncc(F)c(-c3c[nH]c4ccccc34)n2)ccc1N(C)CCN(C)C [Compound 260, N^1-(2-(dimethylamino)ethyl)-N^4-(5-fluoro-4-(1H-indol-3-yl)pyrimidin-2-yl)-N^1,N^2-dimethylbenzene-1,2,4-triamine] | 145 | 
CC(=O)Nc1cc(Nc2ncc(F)c(-c3cn(C)c4ccccc34)n2)ccc1N(C)CCN(C)C [Compound 261, N-(2-((2-(dimethylamino)ethyl)(methyl)amino)-5-((5-fluoro-4-(1-methyl-1H-indol-3-yl)pyrimidin-2-yl)amino)phenyl)acetamide] | 509 | 
CN(C)CCN(C)c1ccc(Nc2ncc(F)c(-c3cn(C)c4ccccc34)n2)cc1N [Compound 262, N^1-(2-(dimethylamino)ethyl)-N^4-(5-fluoro-4-(1-methyl-1H-indol-3-yl)pyrimidin-2-yl)-N-methylbenzene-1,2,4-triamine] | 966 | 
CNc1cc(Nc2ncc(F)c(-c3cn(C)c4ccccc34)n2)ccc1N(C)CCN(C)C [Compound 263, N^1-(2-(dimethylamino)ethyl)-N^4-(5-fluoro-4-(1-methyl-1H-indol-3-yl)pyrimidin-2-yl)-N^1,N^2-dimethylbenzene-1,2,4-triamine] | 704 | 
CC(=O)Nc1cc(Nc2ncc(F)c(-c3cn(C)c4cccc(F)c34)n2)ccc1N(C)CCN(C)C [Compound 264, N-(2-((2-(dimethylamino)ethyl)(methyl)amino)-5-((5-fluoro-4-(4-fluoro-1-methyl-1H-indol-3-yl)pyrimidin-2-yl)amino)phenyl)acetamide] | 1040 | 
CC(=O)Nc1cc(Nc2ncc(F)c(-c3cn(C)c4ccc(F)cc34)n2)ccc1N(C)CCN(C)C [Compound 265, N-(2-((2-(dimethylamino)ethyl)(methyl)amino)-5-((5-fluoro-4-(5-fluoro-1-methyl-1H-indol-3-yl)pyrimidin-2-yl)amino)phenyl)acetamide] | 414 | 
CC(=O)Nc1cc(Nc2ncc(F)c(-c3c[nH]c4cc(F)ccc34)n2)ccc1N(C)CCN(C)C [Compound 266, N-(2-((2-(dimethylamino)ethyl)(methyl)amino)-5-((5-fluoro-4-(6-fluoro-1H-indol-3-yl)pyrimidin-2-yl)amino)phenyl)acetamide] | 764 | 
CC(=O)Nc1cc(Nc2ncc(F)c(-c3cn(C)c4cc(F)ccc34)n2)ccc1N(C)CCN(C)C [Compound 267, N-(2-((2-(dimethylamino)ethyl)(methyl)amino)-5-((5-fluoro-4-(6-fluoro-1-methyl-1H-indol-3-yl)pyrimidin-2-yl)amino)phenyl)acetamide] | 303 | 
CC(=O)Nc1cc(Nc2ncc(F)c(-c3cn(C)c4cc(F)c(F)cc34)n2)ccc1N(C)CCN(C)C [Compound 268, N-(5-((4-(5,6-difluoro-1-methyl-1H-indol-3-yl)-5-fluoropyrimidin-2-yl)amino)-2-((2-(dimethylamino)ethyl)(methyl)amino)phenyl)acetamide] | 784 | 
CC(=O)Nc1cc(Nc2ncc(F)c(-c3c[nH]c4ccc(C)cc34)n2)ccc1N(C)CCN(C)C [Compound 269, N—N-(2-((2-(dimethylamino)ethyl)(methyl)amino)-5-((5-fluoro-4-(5-methyl-1H-indol-3-yl)pyrimidin-2-yl)amino)phenyl)acetamide] |  | 112
CC(=O)Nc1cc(Nc2ncc(F)c(-c3cn(C)c4ccc(C)cc34)n2)ccc1N(C)CCN(C)C [Compound 270, N-(5-((4-(1,5-dimethyl-1H-indol-3-yl)-5-fluoropyrimidin-2-yl)amino)-2-((2-(dimethylamino)ethyl)(methyl)amino)phenyl)acetamide] | 1600 | 
COc1cccc2c1c(-c1nc(Nc3ccc(N(C)CCN(C)C)c(NC(C)=O)c3)ncc1F)cn2C [Compound 271, N-(2-((2-(dimethylamino)ethyl)(methyl)amino)-5-((5-fluoro-4-(4-methoxy-1-methyl-1H-indol-3-yl)pyrimidin-2-yl)amino)phenyl)acetamide] | 1480 | 
COc1cnc(Nc2ccc(N(C)CCN(C)C)c(NC(C)=O)c2)nc1-c1c[nH]c2ccccc12 [Compound 272a, N-(5-(4-(1H-indol-3-yl)-5-methoxypyrimidin-2-ylamino)-2-((2-(dimethylamino)ethyl)(methyl)amino)phenyl)acetamide] | 41 | 
